Here are results for 8 compounds from PMC5243837, “The Effect of Selective D- or N^α-Methyl Arginine Substitution on the Activity of the Proline-Rich Antimicrobial Peptide, Chex1-Arg20” (Frontiers in Chemistry, 2017).

Read-outs that look alike come from different tables or passages of the source. Where a SMILES comes first, the peptide text is derived from it. [ ]: non-standard residue; d: D form. NMeR = CN[C@@H](CCCNC(=N)N)C(=O)O; Ac6c = NC1(C(=O)O)CCCCC1; Chex = not defined here Bounds are passed on as bounds.

The subject of series [1] is K. pneumoniae ATCC 13883. The following applies: previously reported, ref Li et al., 2015b; cited from earlier work. An excerpt:
Table 2 Antibacterial activity, MIC (μM), of Chex1-Arg20 analogs against Gram-negative pathogen K. pneumoniae ATCC 13883. | column: 1^^*

The subject of series [2] is K. pneumoniae ATCC 13883. It counts as cell-based, Klebsiella pneumoniae. As to conditions: for Antibacterial activity, MIC: ATCC 13883; for Antibacterial activity against K. pneumoniae (in words): K. pneumoniae ATCC 13883 in MHB, compared with analog 1, Chex1-Arg20. On the procedure: An antibacterial assay was undertaken to determine the minimal inhibitory concentration (MIC) as described previously (Li et al., [2015b]). The Gram-negative nosocomial bacterium, K. pneumoniae ATCC13883, was selected for testing the antibacterial activities of the Chex1-Arg20 analogs using 2.5 × 10^5 cells/ml in Mueller Hinton broth (MHB) at 37°C immediately prior to the determination of MIC.
Each Chex1-Arg20 analog was assayed against the nosocomial Gram-negative bacterium K. pneumoniae ATCC 13883. The results are shown in Table 2 in comparison with analog 1, Chex1-Arg20. […] This highlighted the importance of arginine-7 and its native L-configuration for characteristic antimicrobial activity.

For series [3] the following is noted: cited from earlier work.

In the case of “Chex1-Arg20 (Chex-RPDKPRPYLPRPRPPRPVR-NH2; reading uncertain) [analog 1, de novo designed proline-rich antimicrobial peptide, Chex-…-NH2]”, the “Antibacterial activity, MIC” value in series [1] was 0.8 ± 0.1 µM. With `CC(C)C[C@H](NC(=O)[C@H](Cc1ccc(O)cc1)NC(=O)[C@@H]1CCCN1C(=O)[C@H](CCCNC(=N)N)NC(=O)[C@@H]1CCCN1C(=O)[C@H](CCCCN)NC(=O)[C@H](CC(=O)O)NC(=O)[C@@H]1CCCN1C(=O)[C@H](CCCNC(=N)N)NC(=O)C1(N)CCCCC1)C(=O)N1CCC[C@H]1C(=O)N[C@@H](CCCNC(=N)N)C(=O)N1CCC[C@H]1C(=O)N[C@@H](CCCNC(=N)N)C(=O)N1CCC[C@H]1C(=O)N1CCC[C@H]1C(=O)N[C@@H](CCCNC(=N)N)C(=O)N1CCC[C@H]1C(=O)N[C@H](C(=O)N[C@H](CCCNC(=N)N)C(N)=O)C(C)C` [analog 6, DR20] (H-[Ac6c]RPDKPRPYLPRPRPPRPV[dR]-NH2; N-terminus assumed), the “Antibacterial activity, MIC” value in series [2] was 11.8 ± 0.1 µM. Still for that read-out and setting: with `CC(C)C[C@H](NC(=O)[C@H](Cc1ccc(O)cc1)NC(=O)[C@@H]1CCCN1C(=O)[C@H](CCCNC(=N)N)NC(=O)[C@@H]1CCCN1C(=O)[C@H](CCCCN)NC(=O)[C@H](CC(=O)O)NC(=O)[C@@H]1CCCN1C(=O)[C@H](CCCNC(=N)N)NC(=O)C1(N)CCCCC1)C(=O)N1CCC[C@H]1C(=O)N[C@@H](CCCNC(=N)N)C(=O)N1CCC[C@H]1C(=O)N[C@@H](CCCNC(=N)N)C(=O)N1CCC[C@H]1C(=O)N1CCC[C@H]1C(=O)N[C@@H](CCCNC(=N)N)C(=O)N1CCC[C@H]1C(=O)N[C@H](C(=O)N(C)[C@@H](CCCNC(=N)N)C(N)=O)C(C)C` [analog 7, mR20] (H-[Ac6c]RPDKPRPYLPRPRPPRPV[NMeR]-NH2; N-terminus assumed) the figure was 14.5 ± 0.1 µM. Take `CC(C)C[C@H](NC(=O)[C@@H]1CCCN1C(=O)[C@H](CCCNC(=N)N)NC(=O)[C@@H]1CCCN1C(=O)[C@H](CCCNC(=N)N)NC(=O)[C@@H]1CCCN1C(=O)[C@@H]1CCCN1C(=O)[C@H](CCCNC(=N)N)NC(=O)[C@@H]1CCCN1C(=O)[C@@H](NC(=O)[C@H](CCCNC(=N)N)NC(=O)C1(N)CCCCC1)C(C)C)C(=O)N[C@@H](Cc1ccc(O)cc1)C(=O)N1CCC[C@H]1C(=O)N[C@@H](CCCNC(=N)N)C(=O)N1CCC[C@H]1C(=O)N[C@@H](CCCCN)C(=O)N[C@@H](CC(=O)O)C(=O)N1CCC[C@H]1C(=O)N[C@@H](CCCNC(=N)N)C(N)=O` [analog 8, reverse] (H-[Ac6c]RVPRPPRPRPLYPRPKDPR-NH2; N-terminus assumed): in series [2], the “Antibacterial activity, MIC” value was greater than 100 µM and the “Antibacterial activity against K. pneumoniae (in words)” value (from here on “Antibacterial activity … (in words)”) is “no activity”. The like results for `CC(C)C[C@H](NC(=O)[C@H](Cc1ccc(O)cc1)NC(=O)[C@@H]1CCCN1C(=O)[C@@H](CCCNC(=N)N)NC(=O)[C@@H]1CCCN1C(=O)[C@H](CCCCN)NC(=O)[C@H](CC(=O)O)NC(=O)[C@@H]1CCCN1C(=O)[C@H](CCCNC(=N)N)NC(=O)C1(N)CCCCC1)C(=O)N1CCC[C@H]1C(=O)N[C@@H](CCCNC(=N)N)C(=O)N1CCC[C@H]1C(=O)N[C@@H](CCCNC(=N)N)C(=O)N1CCC[C@H]1C(=O)N1CCC[C@H]1C(=O)N[C@@H](CCCNC(=N)N)C(=O)N1CCC[C@H]1C(=O)N[C@H](C(=O)N[C@@H](CCCNC(=N)N)C(N)=O)C(C)C` [analog 2, DR7] (H-[Ac6c]RPDKP[dR]PYLPRPRPPRPVR-NH2; N-terminus assumed) were, in that order, greater than 100 µM and “substantial loss of activity”.

Take `CC(C)C[C@H](NC(=O)[C@H](Cc1ccc(O)cc1)NC(=O)[C@@H]1CCCN1C(=O)[C@H](N)CCCNC(=N)N)C(=O)N1CCC[C@H]1C(=O)N[C@@H](CCCNC(=N)N)C(=O)N1CCC[C@H]1C(=O)N[C@@H](CCCNC(=N)N)C(=O)N1CCC[C@H]1C(=O)N1CCC[C@H]1C(=O)N[C@@H](CCCNC(=N)N)C(=O)N1CCC[C@H]1C(=O)N[C@H](C(N)=O)C(C)C` [analog 4, DR7(7–19)] (H-[dR]PYLPRPRPPRPV-NH2; N-terminus assumed): in series [2], the “Antibacterial activity, MIC” value was greater than 100 µM and the “Antibacterial activity … (in words)” value is on record as “no antibacterial activity”. Take `CC(C)C[C@H](NC(=O)[C@H](Cc1ccc(O)cc1)NC(=O)[C@@H]1CCCN1C(=O)[C@@H](CCCNC(=N)N)NC(=O)[C@@H]1CCCN1C(=O)[C@H](CCCCN)NC(=O)[C@H](CC(=O)O)NC(=O)[C@@H]1CCCN1C(=O)[C@H](CCCNC(=N)N)NC(=O)C1(N)CCCCC1)C(=O)N1CCC[C@H]1C(=O)N[C@@H](CCCNC(=N)N)C(=O)N1CCC[C@H]1C(=O)N[C@@H](CCCNC(=N)N)C(=O)N1CCC[C@H]1C(=O)N1CCC[C@H]1C(=O)N[C@@H](CCCNC(=N)N)C(=O)N1CCC[C@H]1C(=O)N[C@H](C(N)=O)C(C)C` [analog 5, Chex1-Val19] (H-[Ac6c]RPDKP[dR]PYLPRPRPPRPV-NH2; N-terminus assumed): in series [2], the “Antibacterial activity, MIC” value was 36.1 ± 0.6 µM and the “Antibacterial activity … (in words)” value is listed as “partially restored activity”. In the case of A3-APO, the “Degradation sites in vivo” value in series [3] was “degradation at positions Pro6-Arg7 and Val19-Arg20”.
